Laboratory results as given in PubChem BioAssay (NCI).
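Briefly, cells in 96-well plates were exposed to five compound concentrations for 48 h, and endpoints were estimated by linear interpolation. Abbreviation: GI50, concentration required for 50% inhibition of growth. TGI marks complete inhibition of growth.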

How the values were obtained:
Assay in all cases: NCI anticancer screen, dose series, 48 h
ACHN renal = system: ACHN renal
SK-MEL-28 melanoma = system: SK-MEL-28 melanoma
BT-549 breast = system: BT-549 breast
IGROV1 ovarian = system: IGROV1 ovarian
MDA-MB-231 breast = system: MDA-MB-231 breast
SK-MEL-2 melanoma = system: SK-MEL-2 melanoma
SK-MEL-5 melanoma = system: SK-MEL-5 melanoma
CCRF-CEM leukemia = system: CCRF-CEM leukemia
T-47D breast = system: T-47D breast
K-562 leukemia = system: K-562 leukemia

| SMILES | TGI (ACHN renal) [µM] | TGI (SK-MEL-28 melanoma) [µM] | TGI (BT-549 breast) [µM] | TGI (IGROV1 ovarian) [µM] | TGI (MDA-MB-231 breast) [µM] | TGI (SK-MEL-2 melanoma) [µM] | TGI (SK-MEL-5 melanoma) [µM] | TGI (CCRF-CEM leukemia) [µM] | TGI (T-47D breast) [µM] | TGI (K-562 leukemia) [µM] | GI50 (ACHN renal) [µM] | GI50 (SK-MEL-28 melanoma) [µM] | GI50 (BT-549 breast) [µM] | GI50 (IGROV1 ovarian) [µM] | GI50 (MDA-MB-231 breast) [µM] | GI50 (SK-MEL-2 melanoma) [µM] | GI50 (SK-MEL-5 melanoma) [µM] | GI50 (CCRF-CEM leukemia) [µM] | GI50 (T-47D breast) [µM] | GI50 (K-562 leukemia) [µM] |
| --- | --- | --- | --- | --- | --- | --- | --- | --- | --- | --- | --- | --- | --- | --- | --- | --- | --- | --- | --- | --- |
| O=C1CSC(c2cccs2)N1c1nc2cc3sc(N4C(=O)CSC4c4cccs4)nc3cc2s1 (stereo not drawn) | > 50 | > 50 | > 50 | > 50 | > 50 | > 50 | > 50 | > 50 | > 50 | > 50 | – | – | – | – | – | – | – | – | – | – |
| CNC(=O)N(CCC#N)[C@H]1CCCC[C@@H]1N(C(=O)NC)c1ccccc1 | > 100 | > 100 | > 100 | > 100 | > 100 | > 100 | > 100 | > 100 | > 100 | > 100 | – | – | – | – | – | – | – | – | – | – |
| O=c1oc2cc(O)ccc2c(O)c1C(c1ccc(C(c2c(O)c3ccc(O)cc3oc2=O)c2c(O)c3ccc(O)cc3oc2=O)cc1)c1c(O)c2ccc(O)cc2oc1=O | – | > 100 | > 100 | > 100 | > 100 | > 100 | > 100 | > 100 | > 100 | > 100 | – | – | – | – | – | – | – | – | – | – |
| COc1ccc(-c2c(C#N)c(N)nc3c2CCS(=O)(=O)c2ccccc2-3)cc1 | > 100 | > 100 | > 100 | > 100 | > 100 | > 100 | > 100 | > 100 | > 100 | > 100 | – | – | – | – | – | – | – | – | – | – |
| c1ccc(/C(=N/Nc2ccccn2)c2ncccn2)cc1 | 13.3 | > 78.1 | > 100 | > 21 | > 100 | > 100 | 26.9 | > 100 | > 100 | > 39.8 | – | – | – | – | – | – | – | – | – | – |
| COc1cc(I)c2c3c1OC1C34CCN(C)C(C2)C4=CC(I)C1(OC)OC (stereo not drawn) | 98.3 | 47.5 | 48.4 | 54.3 | 46.3 | 32.9 | 34 | 26.8 | 31.1 | 61.8 | – | – | – | – | – | – | – | – | – | – |
| C=c1c(OC)c(OC)c(O)c2c1=c1cc([N+](=O)[O-])cc(OC)c1=N2 | > 100 | > 100 | > 100 | > 100 | > 100 | > 100 | > 100 | > 100 | > 100 | > 100 | – | – | – | – | – | – | – | – | – | – |
| Nc1c(C(=O)c2ccc(Cl)cc2)[nH]c(NCc2ccccc2)c1C(=S)Nc1ccccc1 | 4.71 | 3.22 | 7.06 | 6.43 | 3.91 | 3.58 | – | 5.54 | 65.1 | 4.04 | – | – | – | – | – | – | – | – | – | – |
| CCOC(=O)/C(C#N)=N\Nc1ccc(-n2c(C)nc3ccccc3c2=O)cc1 | > 100 | > 100 | > 100 | > 100 | > 100 | > 100 | 36.6 | > 100 | > 100 | > 100 | – | – | – | – | – | – | – | – | – | – |
| CC1S/C(=N/c2nnc(-c3ccccc3)o2)NC1=O (stereo not drawn) | > 100 | > 100 | > 100 | > 100 | > 100 | > 100 | > 100 | > 100 | > 100 | > 100 | – | – | – | – | – | – | – | – | – | – |
| Cc1nn(-c2cc(Cl)ccc2[N+](=O)[O-])c(C)c1Cl | > 100 | > 100 | > 100 | > 100 | > 100 | > 100 | > 100 | > 100 | > 100 | > 100 | – | – | – | – | – | – | – | – | – | – |
| CCN1CCC(O)(C(C(=O)O)c2ccccc2)CC1 (stereo not drawn) | > 100 | > 100 | > 100 | > 100 | > 100 | > 100 | > 100 | > 100 | > 100 | > 100 | – | – | – | – | – | – | – | – | – | – |
| CCC(C)C(=O)OC1CC2(C)C(c3ccoc3)OC(=O)CC23OC2(C)OC34C(OC(=O)C(C)C)C3(O)C(OC(=O)C5(C)OC5C)C5(C)CC3(O)C(C)(C5CC(=O)OC)C14O2 (stereo not drawn) | > 100 | > 100 | > 100 | > 100 | > 100 | > 100 | 87 | 74.1 | > 100 | > 100 | – | – | – | – | – | – | – | – | – | – |
| CC1(CNCc2ccccc2)CC(CCc2ccccc2)N(C(=O)c2ccc([N+](=O)[O-])cc2)C1Cc1ccc(O)cc1 (stereo not drawn) | 24.8 | > 100 | 31.3 | 31.2 | 24.4 | 32.7 | 17.3 | > 100 | 18.8 | > 100 | – | – | – | – | – | – | – | – | – | – |
| NC(N)=NS(=O)(=O)c1ccc(NC(=O)c2ccc3nc4ccccc4c(Nc4ccc(S(=O)(=O)N=C(N)N)cc4)c3c2)cc1 | > 100 | > 100 | > 100 | > 100 | > 100 | > 100 | > 100 | > 100 | > 100 | > 100 | – | – | – | – | – | – | – | – | – | – |
| CC1(C)C=C(S(=O)(=O)c2ccccc2)Oc2ccccc2O1 | > 100 | > 100 | > 100 | > 100 | > 100 | > 100 | 28.9 | > 100 | 96.4 | > 100 | – | – | – | – | – | – | – | – | – | – |
| N#Cc1c(-c2ccc(F)cc2)nc(N/N=C/c2c[nH]c3ccccc23)nc1N1CCOCC1 | 30.7 | 4.04 | 30.9 | 79.7 | 56.4 | 17.7 | 25.9 | > 100 | 40 | 14.2 | 2.24 | 1.92 | 5.43 | 12.8 | 5.16 | 3.5 | 10.9 | 3.43 | 9.16 | 1.79 |
